Records with an inconclusive call do not appear.
Test system: HEK293 LMP1 TES2 NF-kB luciferase reporter, 16 h
Assay: inhibitors of TNFa-stimulated NF-kB luciferase reporter, dose response, selectivity assay for EBV LMP1 NF-kB inhibitor project, HEK293 LMP1 reporter cells, dry powder, set 2 (AID 624369)

| Compound | AC35 [µM] |
| --- | --- |
| CC(C)(C)[S@@](=O)N1Cc2cc(C(=O)NCc3ccccc3F)nc(-c3cccc(-c4ccncc4)c3)c2[C@H]1CCO | 9.63 |
| COc1ccccc1C#Cc1ccc2c(c1)O[C@H](CN(C)Cc1cccnc1)[C@@H](C)CN([C@@H](C)CO)S2(=O)=O | 26.6 |
| N#C[C@H]1[C@@H](c2ccc(-c3cccnc3)cc2)[C@@H](CO)N1C(=O)Nc1ccc(F)cc1 | 16.9 |
| CN(C)C(=O)c1cccc(-c2cccc(-c3nc(C(=O)NCc4ccccc4)cc4c3[C@@H](CCO)N([S@](=O)C(C)(C)C)C4)c2)c1 | 10.3 |
| O=C(C[C@@H]1CC[C@@H]2[C@H](COC[C@@H](O)CN2Cc2ccc3c(c2)OCO3)O1)Nc1ccc(-c2ccccc2)cc1 | 11.2 |
| COc1ccccc1C#Cc1ccc2c(c1)O[C@H](CN(C)Cc1cccnc1)[C@H](C)CN([C@H](C)CO)S2(=O)=O | 20.7 |
| COc1ccc(CNC(=O)c2cc3c(c(-c4cccc(-c5ccc(C#N)cc5)c4)n2)[C@@H](CCO)N([S@](=O)C(C)(C)C)C3)cc1 | 19.5 |
| Cc1cc(C(=O)Nc2ccc3c(c2)C(=O)N(C)[C@@H]2CC[C@@H](CC(=O)NCc4ccc(-c5ccccc5)cc4)O[C@H]2CO3)no1 | 12.4 |
| CC(C)(C)[S@](=O)N1Cc2cc(C(=O)NCC(F)(F)F)nc(-c3cccc(-c4cccc(F)c4)c3)c2[C@@H]1CCO | 8.65 |
| COc1ccccc1C#Cc1cnc2c(c1)C(=O)N([C@H](C)CO)C[C@H](C)[C@@H](CN(C)C(=O)c1ccc3c(c1)OCO3)O2 | 34.3 |
| Cc1cc(C(=O)Nc2ccc3c(c2)C(=O)N(C)[C@H]2CC[C@@H](CC(=O)NCc4ccc(-c5ccccc5)cc4)O[C@H]2CO3)no1 | 13.5 |
| O=C(C[C@@H]1CC[C@@H]2[C@H](COC[C@H](O)CN2Cc2ccc3c(c2)OCO3)O1)Nc1ccc(-c2ccccc2)cc1 | 10.7 |
| CC(C)(C)[S@@](=O)N1Cc2cc(C(=O)NCCc3ccncc3)nc(-c3cccc(-c4cccnc4)c3)c2[C@H]1CCO | 17.7 |
| O=C(C[C@@H]1C[C@H]2c3cc(NS(=O)(=O)c4ccc(F)cc4)ccc3O[C@H]2[C@@H](CO)O1)NCc1ccc(Oc2ccccc2)cc1 | 19.5 |
| Cc1ccc(S(=O)(=O)N(C)C[C@H]2Oc3cc(C#Cc4ccncc4)ccc3S(=O)(=O)N([C@@H](C)CO)C[C@H]2C)cc1 | 16.4 |
| O=C(C[C@H]1C[C@H]2c3cc(NC(=O)c4ccc5c(c4)OCO5)ccc3O[C@H]2[C@H](CO)O1)NCc1ccc(Oc2ccccc2)cc1 | 30 |
| COc1ccc(S(=O)(=O)N(C)C[C@H]2Oc3ncc(/C=C/c4ccccc4)cc3C(=O)N([C@H](C)CO)C[C@@H]2C)cc1 | 21.9 |
| O=C(C[C@@H]1C[C@@H]2c3cc(NC(=O)c4ccc5c(c4)OCO5)ccc3O[C@@H]2[C@@H](CO)O1)NCc1ccc(Oc2ccccc2)cc1 | 14.2 |
| CN(C)c1ccc2c(c1)[C@@H]1C[C@@H](CC(=O)NCc3ccc(Oc4ccccc4)cc3)O[C@H](CO)[C@@H]1O2 | 10.3 |
| COc1cccc(-c2cccc(-c3nc(C(=O)NCC(F)(F)F)cc4c3[C@H](CCO)N([S@@](=O)C(C)(C)C)C4)c2)c1 | 5.24 |
| C[C@H]1CN([C@@H](C)CO)S(=O)(=O)c2ccc(C#Cc3ccncc3)cc2O[C@H]1CN(C)C(=O)Nc1ccc2c(c1)OCO2 | 15.3 |
| O=C(C[C@H]1C[C@H]2c3cc(NS(=O)(=O)c4ccc(F)cc4)ccc3O[C@H]2[C@H](CO)O1)NCc1ccc(Oc2ccccc2)cc1 | 9.13 |

Source: PubChem BioAssay AID624369 (Broad Institute, 2012)
